# In patent US11851431B2, “Tricyclic Janus kinase 1 inhibitors, and compositions and methods thereof” (LYNK PHARMACEUTICALS CO. LTD., priority 2018, dated 2023):
# Like-named read-outs stand apart in the source and are kept apart here.
# What was measured:
# [1] = target: T1, JAK1 (Homo sapiens, UniProt P23458); experiment: JAK biochemical microfluidic assay (Caliper EZ Reader), JAK1; details: 1 mM ATP; head prints (5 nM)
# T1 construct: purchased Carna Biosciences
# Experimental: (§1) JAK activity was determined in the reaction buffer 50 mM HEPES, 0.01% Brij35, 10 mM MgCl2, 2 mM DTT by a microfluidic assay. The phosphorylation of a FAM labeled peptide substrate was monitored in the Caliper EZ Reader II (Perkin Elmer). The assay condition for each batch of enzyme (Carna Biosciences) was optimized to obtain 10% conversion rate of peptide substrate.
# (§2) The test compounds were dissolved in DMSO to a stock concentration of 10 mM. Three-fold serially diluted compounds with top concentration of 5 μM were pre-incubated with JAK1, JAK2 or TYK2 for 10 min at ambient temperature. The final DMSO concentration of assay mixture was 1%. […] The reaction was stopped by adding 50 mM EDTA.
# (§3) The percent inhibition was calculated by the following formula. % Inhibition=(Conversionmax−Conversionsample)/(Conversionmax−Conversionmin)*100 Conversionmax means the conversion rate in the positive well without addition of compound • […] means the conversion rate in the well without addition of enzyme • Conversionsample means the conversion rate of test compounds
# (§4) The dose-response (percent inhibition) curve was plotted and IC50 values were determined by GraphPad software.
# [2] = target: T2, JAK2 (Homo sapiens, UniProt O60674); experiment: JAK biochemical microfluidic assay (Caliper EZ Reader), JAK2; details: 1 mM ATP; head prints (0.25 nM)
# T2 construct: purchased Carna Biosciences
# T2 sequence (O60674 whole entry): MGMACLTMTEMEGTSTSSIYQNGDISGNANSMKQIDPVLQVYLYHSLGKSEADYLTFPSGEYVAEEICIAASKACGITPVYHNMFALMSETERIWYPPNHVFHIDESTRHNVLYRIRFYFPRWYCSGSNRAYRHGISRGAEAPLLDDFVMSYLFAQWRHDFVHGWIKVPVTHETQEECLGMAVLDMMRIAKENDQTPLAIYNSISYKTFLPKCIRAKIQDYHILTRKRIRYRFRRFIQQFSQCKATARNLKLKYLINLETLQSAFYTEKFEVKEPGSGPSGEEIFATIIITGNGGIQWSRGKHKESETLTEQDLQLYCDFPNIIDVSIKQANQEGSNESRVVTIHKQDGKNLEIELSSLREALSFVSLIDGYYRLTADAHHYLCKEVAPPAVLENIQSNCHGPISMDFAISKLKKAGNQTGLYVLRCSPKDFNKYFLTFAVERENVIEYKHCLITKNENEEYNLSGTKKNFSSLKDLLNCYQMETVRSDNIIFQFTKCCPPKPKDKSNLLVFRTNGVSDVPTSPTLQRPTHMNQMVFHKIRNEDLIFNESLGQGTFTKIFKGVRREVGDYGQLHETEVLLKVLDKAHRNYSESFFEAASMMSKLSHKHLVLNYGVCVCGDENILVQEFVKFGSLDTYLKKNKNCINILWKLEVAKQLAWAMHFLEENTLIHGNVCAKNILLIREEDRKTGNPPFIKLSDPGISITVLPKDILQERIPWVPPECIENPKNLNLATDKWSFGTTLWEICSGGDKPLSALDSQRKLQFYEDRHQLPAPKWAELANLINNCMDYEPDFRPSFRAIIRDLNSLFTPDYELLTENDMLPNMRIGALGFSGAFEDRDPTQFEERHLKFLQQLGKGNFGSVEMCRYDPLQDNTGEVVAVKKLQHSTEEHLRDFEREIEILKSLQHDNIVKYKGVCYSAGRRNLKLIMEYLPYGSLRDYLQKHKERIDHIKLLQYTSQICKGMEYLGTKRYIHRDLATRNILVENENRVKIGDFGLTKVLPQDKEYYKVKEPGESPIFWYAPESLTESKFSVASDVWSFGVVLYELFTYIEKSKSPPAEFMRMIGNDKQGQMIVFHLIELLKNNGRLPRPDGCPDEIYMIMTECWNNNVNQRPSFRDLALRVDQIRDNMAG
# Experimental: as §1, §2, §3, §4
# [3] = target: T3, TYK2 (Homo sapiens, UniProt P29597); experiment: JAK biochemical microfluidic assay (Caliper EZ Reader), TYK2; details: 1 mM ATP; head prints (2.5 nM)
# T3 construct: purchased Carna Biosciences
# T3 sequence (P29597 whole entry): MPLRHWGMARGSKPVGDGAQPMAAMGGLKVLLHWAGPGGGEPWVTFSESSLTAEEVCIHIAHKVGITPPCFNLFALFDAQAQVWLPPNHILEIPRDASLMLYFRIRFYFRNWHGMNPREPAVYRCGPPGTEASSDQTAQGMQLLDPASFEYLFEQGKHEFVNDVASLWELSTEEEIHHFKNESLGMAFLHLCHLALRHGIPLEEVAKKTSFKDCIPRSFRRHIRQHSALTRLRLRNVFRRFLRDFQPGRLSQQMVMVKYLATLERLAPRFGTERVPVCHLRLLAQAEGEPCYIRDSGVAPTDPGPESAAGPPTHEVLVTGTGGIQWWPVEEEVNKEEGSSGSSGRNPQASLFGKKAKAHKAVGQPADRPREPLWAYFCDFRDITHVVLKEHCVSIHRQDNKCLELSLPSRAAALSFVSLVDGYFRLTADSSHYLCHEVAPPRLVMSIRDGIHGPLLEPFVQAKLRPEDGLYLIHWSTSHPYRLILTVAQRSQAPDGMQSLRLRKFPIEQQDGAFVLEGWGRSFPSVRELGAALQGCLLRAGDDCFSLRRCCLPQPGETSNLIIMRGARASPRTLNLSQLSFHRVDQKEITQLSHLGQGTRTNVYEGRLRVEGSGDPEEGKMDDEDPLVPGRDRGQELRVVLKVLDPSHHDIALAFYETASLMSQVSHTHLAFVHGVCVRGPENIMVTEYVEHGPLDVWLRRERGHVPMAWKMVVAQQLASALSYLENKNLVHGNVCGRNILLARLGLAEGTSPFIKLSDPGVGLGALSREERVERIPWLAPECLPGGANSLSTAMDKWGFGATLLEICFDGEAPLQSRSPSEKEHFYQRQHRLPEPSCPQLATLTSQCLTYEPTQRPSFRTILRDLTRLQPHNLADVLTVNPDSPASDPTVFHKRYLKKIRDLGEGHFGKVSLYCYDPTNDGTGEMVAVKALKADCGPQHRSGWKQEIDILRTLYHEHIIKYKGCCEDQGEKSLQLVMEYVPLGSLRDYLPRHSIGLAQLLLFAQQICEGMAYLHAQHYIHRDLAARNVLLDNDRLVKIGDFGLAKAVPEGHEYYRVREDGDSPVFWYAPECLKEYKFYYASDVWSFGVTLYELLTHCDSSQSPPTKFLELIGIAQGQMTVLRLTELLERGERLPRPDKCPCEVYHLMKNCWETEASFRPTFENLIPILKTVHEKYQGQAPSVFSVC
# Experimental: as §1, §2, §3, §4
# [4] = Rat pharmacokinetic study; type: in vivo, Sprague-Dawley rats; details: for half-life: read-out: t½ (converted)
# Experimental: Pharmacokinetic profile of test articles were evaluated in fasted Sprague-Dawley rats. Typically, Rats were dosed with 1 mg/kg and 2 mg/kg by intravenous injection and oral gavage, respectively. After dosing, blood samples were collected at each time point. For IV injection group, time points were set at 5, 15, 30 min, and then 1, 2, 4, 8 and 24 hours after dosing. For oral gavage group, time points were set at 15, 30 min, and then 1, 2, 4, 8, and 24 hours. Blood was collected into appropriately labeled tubes containing K2EDTA as the anticoagulant. Plasma was obtained within 1 hours of blood collection by centrifugation at 8000×g and 4° C. for 6 minutes, and then stored at −20° C. until analyzed by LC/MS/MS for quantification.
# PK parameter values, including, but not necessarily limited to, the maximum plasma concentrations (Cmax), the time to reach the maximum concentrations (Tmax), and the area under the plasma concentration vs. time curve (AUC) from time zero to 24-hour (AUC0-24h) were determined using WinNonlin program.
# [5] = Human liver microsome stability study; type: in vitro ADME; details: liver microsomes, pH 7.4, 0.5 mg/mL microsomal protein, 1 μM test article; for microsomal CLint at 1 μM: read-out: HLM Clint; for half-life at 1 μM: read-out: HLM T½
# Experimental: Commercially available human liver microsome (vendor: Corning) were used for study the Phase I stability of test articles.
# Microsomes were pre-incubated with test compound or control compounds for 10 min at 37° C. in 100 mM potassium phosphate buffer, pH 7.4, 3.3 mM MgCl2. The reaction was initiated by addition of 80 μL of the NADPH regenerating system to 320 μL of each incubation mixture per time point. The final incubation condition was composed of 0.5 mg/mL microsomal protein, 1 μM test article/positive control, 1.3 mM NADP, 3.3 mM glucose-6-phosphate, and 0.6 U/mL glucose-6-phosphate dehydrogenase. The 0-minute samples were prepared by addition of an 80 μL aliquot of each incubation mixture to 400 μL quench reagent to precipitate proteins. And then a 20 μL aliquot of the NADPH regenerating system was added. At 10, 30, and 90 minutes, the reaction will be stopped by the addition of cold acetonitrile solution containing tolbutamide and propanolol served as internal standard. The samples taken at all time points were centrifuged at 4000×g for 15 minutes. 80 μL of supernatant are taken into 96-well assay plates pre-added with 160 μL ultrapure water, and then analyzed by LC/MS/MS (Shimadzu LC30AD & API4000/API5000)).
# Concentrations of test articles, control compounds in the samples were determined by using LC/MS/MS) method. Plotting of the chromatograms and peak area integrations are carried out by Analyst (AB Sciex).
# In the determination of the in vitro elimination constant, ke, of the control compounds, the analyte/internal standard peak area ratios will be converted to percentage remaining (% Remaining) with the following equation:
# The CLint of microsomes was calculated using the formula: CLint (mic)=0.693/T1/2/mg microsome protein per mL.
# [6] = test system: BaF3-TEL-JAK1; experiment: Anti-proliferative assay, BaF3-TEL-JAK1 cells; type: cell-based; details: 72 h, Cell-Titer Glo
# Experimental: (§5) Dimerization domain of Tel protein fused with JAK kinase domain was permanently transduced into BaF3 cells, whose proliferation is dependent on JAK activity in the absence of IL-3 induction. These engineered BaF3-Tel-JAK cells were used to monitor JAK inhibitory activities of the compounds in the cellular.
# (§6) BaF3-Tel-JAK cells were cultured in RPMI-1640 (Corning) containing 10% fetal bovine serum. Cells were seeded at 2000/well of white flat bottom 96-well plates. The well containing medium only was used as background control. After 24h growth, cells were treated with compounds. The test compounds were dissolved in DMSO to a stock concentration of 10 mM. 3-fold serially diluted compounds for 9 concentrations with top concentration of 10 μM was added into the each well. The final DMSO concentration was 0.2%. The cells continued to grow at 37° C. in 5% CO2 for 72 h after compound treatment. The viability was measured by cellular ATP determination using the Cell-Titer Glo luciferase reagent (Promega). The Luminescence value was recorded by a multi-label reader Envision (PerkinElmer). Values were transformed to percent inhibition using the following formula. % Inhibition=(Readoutmax−Readoutsample)/(Readoutmax−Readoutmin)*100
# (§7) The well without compound but with equivalent DMSO was defined as Readout max
# (§8) The well with only medium and equivalent DMSO was defined as Readout min
# (§9) The dose-response (percent inhibition) curve was plotted and GI50 values (the concentration that causes 50% growth inhibition) were determined by GraphPad software.
# [7] = test system: BaF3-TEL-JAK2; experiment: Anti-proliferative assay, BaF3-TEL-JAK2 cells; type: cell-based; details: 72 h, Cell-Titer Glo
# Experimental: as §5, §6, §7, §8, §9
# [8] = Sprague-Dawley, plasma, 1 mg/kg, Rat iv @1 mpk, 0.2 mg/mL in 5% DMSO + 15% Solutol HS 15 + 80% Saline
# [9] = Sprague-Dawley, plasma, 2 mg/kg, Rat po @2 mpk, 0.2 mg/mL in 5% DMSO + 15% Solutol HS 15 + 80% Saline
# T1 sequence (P23458 whole entry): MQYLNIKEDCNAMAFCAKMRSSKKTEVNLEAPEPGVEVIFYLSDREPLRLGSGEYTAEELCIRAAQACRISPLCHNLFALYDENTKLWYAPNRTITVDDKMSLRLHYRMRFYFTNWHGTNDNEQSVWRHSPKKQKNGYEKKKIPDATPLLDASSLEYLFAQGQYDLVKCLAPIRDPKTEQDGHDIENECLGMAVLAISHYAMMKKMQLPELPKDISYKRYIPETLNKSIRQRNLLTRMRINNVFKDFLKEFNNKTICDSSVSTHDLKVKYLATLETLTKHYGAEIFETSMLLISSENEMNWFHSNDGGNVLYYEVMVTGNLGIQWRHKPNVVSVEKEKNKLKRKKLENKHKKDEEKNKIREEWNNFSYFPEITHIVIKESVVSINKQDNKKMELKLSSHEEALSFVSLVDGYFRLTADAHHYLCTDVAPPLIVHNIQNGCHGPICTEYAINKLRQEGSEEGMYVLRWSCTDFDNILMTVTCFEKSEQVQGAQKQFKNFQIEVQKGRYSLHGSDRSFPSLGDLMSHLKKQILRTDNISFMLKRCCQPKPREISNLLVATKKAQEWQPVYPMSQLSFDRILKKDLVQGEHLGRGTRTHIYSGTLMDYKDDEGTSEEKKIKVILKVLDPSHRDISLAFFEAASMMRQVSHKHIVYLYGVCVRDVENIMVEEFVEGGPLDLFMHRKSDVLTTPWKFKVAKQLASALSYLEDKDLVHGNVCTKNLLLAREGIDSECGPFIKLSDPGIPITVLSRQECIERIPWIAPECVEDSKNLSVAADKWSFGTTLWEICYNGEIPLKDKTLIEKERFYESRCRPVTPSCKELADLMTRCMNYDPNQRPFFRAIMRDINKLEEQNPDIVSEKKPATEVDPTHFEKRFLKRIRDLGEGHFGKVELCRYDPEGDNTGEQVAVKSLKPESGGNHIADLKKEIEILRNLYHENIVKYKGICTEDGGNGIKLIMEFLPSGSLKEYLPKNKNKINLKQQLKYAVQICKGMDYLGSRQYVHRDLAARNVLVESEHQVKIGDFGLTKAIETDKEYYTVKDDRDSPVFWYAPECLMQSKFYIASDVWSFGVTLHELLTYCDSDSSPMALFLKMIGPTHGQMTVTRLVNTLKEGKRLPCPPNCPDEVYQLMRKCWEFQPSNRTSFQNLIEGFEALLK
IC50 [1] [µM],IC50 [2] [µM],IC50 [3] [µM],"F ([4]; Rat po @2 mpk, 0.2 mg/mL in 5% DMSO + 15% Solutol HS 15 + 80% Saline) [%]","AUC [4, 8] [µg·h/mL]","Vd [4, 8] [L/kg]","clearance [4, 8] [L/h/kg]","half-life [4, 8] [h]","AUC [4, 9] [µg·h/mL]","Cmax [4, 9] [µg/mL]","half-life [4, 9] [h]",Pharmacokinetic profile in rats ([4]; conclusion in words),microsomal CLint at 1 μM [5] [µL/min/mg],half-life at 1 μM [5] [h],GI50 [6] [µM],GI50 [7] [µM],Compound
0.00595,0.141,0.119,21.90,0.458,1.42,2.17,0.46,0.19,0.0928,2.06,good Pharmacokinetic profile,4.1,5.69,0.0196,0.354,"CCCS(=O)(=O)NC12CC(n3cnc4cnc5[nH]ccc5c43)(C1)C2 [Example 1, N-(3-(Imidazo[4,5-d]pyrrolo[2,3-b]pyridin-1(6H)-yl)bicyclo[1.1.1]pentan-1-yl)propane-1-sulfonamide]"
0.0061,0.0455,0.0284,–,–,–,–,–,–,–,–,–,1.24,18.6,0.054,0.163,"O=S(=O)(NC12CC(n3cnc4cnc5[nH]ccc5c43)(C1)C2)N1CC(F)C1 [Example 22, 3-Fluoro-N-(3-(imidazo[4,5-d]pyrrolo[2,3-b]pyridin-1(6H)-yl)bicyclo[1.1.1]pentan-1-yl)azetidine-1-sulfonamide]"

# More lines, now with the values behind:
Compound,IC50 [1] [µM],IC50 [2] [µM],IC50 [3] [µM],"F ([4]; Rat po @2 mpk, 0.2 mg/mL in 5% DMSO + 15% Solutol HS 15 + 80% Saline) [%]","AUC [4, 8] [µg·h/mL]","Vd [4, 8] [L/kg]","clearance [4, 8] [L/h/kg]","half-life [4, 8] [h]","AUC [4, 9] [µg·h/mL]","Cmax [4, 9] [µg/mL]","half-life [4, 9] [h]",Pharmacokinetic profile in rats ([4]; conclusion in words),microsomal CLint at 1 μM [5] [µL/min/mg],half-life at 1 μM [5] [h],GI50 [6] [µM],GI50 [7] [µM]
"O=C(CC1CC1)NC12CC(n3cnc4cnc5[nH]ccc5c43)(C1)C2 [Example 13, 2-Cyclopropyl-N-(3-(imidazo[4,5-d]pyrrolo[2,3-b]pyridin-1(6H)-yl)bicyclo[1.1.1]pentan-1-yl)acetamide]",0.0148,0.122,0.4,–,–,–,–,–,–,–,–,–,1.01,23,0.0501,0.107
"O=C(NC12CC(n3cnc4cnc5[nH]ccc5c43)(C1)C2)C1CC(F)(F)C1 [Example 17, 3,3-Difluoro-N-(3-(imidazo[4,5-d]pyrrolo[2,3-b]pyridin-1(6H)-yl)bicyclo[1.1.1]pentan-1-yl)cyclobutanecarboxamide]",0.0084,0.0895,–,–,–,–,–,–,–,–,–,–,1.04,22.3,0.0482,0.0867
"O=S(=O)(CCC(F)(F)F)NC12CC(n3cnc4cnc5[nH]ccc5c43)(C1)C2 [Example 32, 3,3,3-Trifluoro-N-(3-(imidazo[4,5-d]pyrrolo[2,3-b]pyridin-1(6H)-yl)bicyclo[1.1.1]pentan-1-yl)propane-1-sulfonamide]",0.0067,0.155,0.151,–,–,–,–,–,–,–,–,–,2.72,8.5,0.0336,0.122
